Active and inactive are the calls of the source. The calls are words filed in the database; no cut-off is given here.
Columns and labels:
[1] = Inhibition of NLRP3 inflammasome activation in LPS/ATP stimulated human THP-1 cells assessed as inhibition of IL-1beta production pretreated with compound for 15 mins followed by LPS and ATP addition and measured after 2 hrs by ELISA; format: cell-based
[2] = test system: THP-1; assay: Antiinflammatory activity against LPS/ATP stimulated human THP-1 cells assessed as ASC speck formation by DAPI staining based cell analyzer; format: functional
[3] = Inhibition of NLRP3 inflammasome activation in LPS stimulated human THP-1 cells assessed as inhibition of TNF-alpha production pretreated with compound for 15 mins followed by LPS and ATP addition and measured after 2 hrs by ELISA; format: cell-based
[4] = Drug concentration in male Sprague-Dawley rat plasma at 5 mg/kg, ip measured after 1 hr by LC-MS/MS analysis; format: ADME, organism-based
[5] = Drug concentration in male Sprague-Dawley rat brain at 5 mg/kg, ip measured after 1 hr by LC-MS/MS analysis; format: ADME, organism-based; conditions: read-out: Ct
[6] = Ratio of drug concentration in brain to plasma in male Sprague-Dawley rat at 5 mg/kg, ip measured after 1 hr by LC-MS/MS analysis; format: ADME, organism-based; conditions: brain and plasma, read-out: BPR
[7] = Drug concentration in male Sprague-Dawley rat plasma at 10 mg/kg, ip measured after 1 hr by LC-MS/MS analysis; format: ADME, organism-based
[8] = Drug concentration in male Sprague-Dawley rat brain at 10 mg/kg, ip measured after 1 hr by LC-MS/MS analysis; format: ADME, organism-based; conditions: read-out: Ct
[9] = Ratio of drug concentration in brain to plasma in male Sprague-Dawley rat at 10 mg/kg, ip measured after 1 hr by LC-MS/MS analysis; format: ADME, organism-based; conditions: brain and plasma, read-out: BPR
[10] = Inhibition of NLRP3 inflammasome activation in LPS primed mouse BMDM cells assessed as inhibition of IL-1beta production preincubated with compound for 1 hr followed by nigericin stimulation and measured after 1 hr by ELISA method; format: cell-based
[11] = molecular target: NACHT, LRR and PYD domains-containing protein 3 (Rattus norvegicus) (UniProt D4A523); conditions: wistar, dose <= 30.0 mg/kg, route po, time 30.0 min
Chain of NACHT, LRR and PYD domains-containing protein 3 (Rattus norvegicus) (D4A523 whole entry, the tested form may be a part): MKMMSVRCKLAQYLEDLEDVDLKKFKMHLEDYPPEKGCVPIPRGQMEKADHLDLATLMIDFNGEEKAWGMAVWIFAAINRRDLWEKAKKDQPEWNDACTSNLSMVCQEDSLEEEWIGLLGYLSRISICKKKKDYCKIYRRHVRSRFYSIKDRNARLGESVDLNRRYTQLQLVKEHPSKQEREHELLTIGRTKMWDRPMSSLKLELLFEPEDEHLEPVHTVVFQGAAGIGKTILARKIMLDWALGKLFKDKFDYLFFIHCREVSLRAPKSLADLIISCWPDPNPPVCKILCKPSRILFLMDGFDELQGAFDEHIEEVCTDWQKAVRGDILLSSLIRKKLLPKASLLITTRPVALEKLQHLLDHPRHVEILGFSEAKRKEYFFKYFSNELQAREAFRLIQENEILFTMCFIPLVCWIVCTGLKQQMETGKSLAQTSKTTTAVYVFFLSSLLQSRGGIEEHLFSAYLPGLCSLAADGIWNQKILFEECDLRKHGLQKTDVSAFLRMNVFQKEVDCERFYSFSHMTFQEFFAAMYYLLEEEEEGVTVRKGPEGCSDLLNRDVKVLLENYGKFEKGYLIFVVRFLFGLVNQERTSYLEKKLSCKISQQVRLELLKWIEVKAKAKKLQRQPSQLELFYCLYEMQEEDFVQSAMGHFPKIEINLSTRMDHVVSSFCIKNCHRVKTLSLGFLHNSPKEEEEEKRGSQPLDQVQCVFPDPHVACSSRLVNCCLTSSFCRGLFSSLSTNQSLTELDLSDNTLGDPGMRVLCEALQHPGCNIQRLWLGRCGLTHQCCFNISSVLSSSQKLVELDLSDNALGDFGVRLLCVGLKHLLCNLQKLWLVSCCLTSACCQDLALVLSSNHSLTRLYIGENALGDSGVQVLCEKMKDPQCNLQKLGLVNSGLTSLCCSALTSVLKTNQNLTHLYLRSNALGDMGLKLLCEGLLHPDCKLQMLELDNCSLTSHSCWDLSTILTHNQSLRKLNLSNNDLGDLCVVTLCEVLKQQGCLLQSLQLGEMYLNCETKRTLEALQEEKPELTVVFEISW

[12] = Intrinsic clearance in human liver microsomes at 0.2 uM in presence of NADPH incubated for 30 mins by LC-MS/MS analysis; format: ADME, Microsome; conditions: read-out: CLH
[13] = Intrinsic clearance in rat liver microsomes at 0.2 uM in presence of NADPH incubated for 30 mins by LC-MS/MS analysis; format: ADME, Microsome; conditions: read-out: CLH
[14] = Ratio of drug concentration in brain to plasma in male Sprague-Dawley rat at 10 mg/kg, po measured after 1 hr by LC-MS/MS analysis; format: ADME, organism-based; conditions: brain and plasma, read-out: BPR
[15] = molecular target: NACHT, LRR and PYD domains-containing protein 3 (Rattus norvegicus) (UniProt D4A523); assay: In vivo inhibition of NLRP3 activation in LPS-induced male wistar rat model assessed as inhibition of IL-1 beta production in CSF at 0.3 mg/kg, po measured after 30 mins by Western blotting analysis; format: functional, organism-based
[16] = molecular target: NACHT, LRR and PYD domains-containing protein 3 (Rattus norvegicus) (UniProt D4A523); assay: In vivo inhibition of NLRP3 activation in LPS-induced male wistar rat model assessed as inhibition of IL-1 beta production in CSF at 1 mg/kg, po measured after 30 mins by Western blotting analysis; format: functional, organism-based
[17] = molecular target: NACHT, LRR and PYD domains-containing protein 3 (Rattus norvegicus) (UniProt D4A523); assay: In vivo inhibition of NLRP3 activation in LPS-induced male wistar rat model assessed as inhibition of IL-1 beta production in CSF at 3 mg/kg, po measured after 30 mins by Western blotting analysis; format: functional, organism-based
[18] = Inhibition of NLRP3 inflammasome activation in alpha-synuclein pre-formed fibril stimulated human THP-1 cells assessed as inhibition of IL-1beta production preincubated with compound for 15 mins followed by alpha-synuclein pre-formed fibril addition and measured after 24 hrs by ELISA; format: cell-based
[19] = test system: Mus musculus; assay: Improvement of motor dysfunction in pathogenic alpha-synuclein induced male C57BL/6J mouse assessed as reduction in number of falls at 1 mg/kg, po administered once a day for 4 weeks and measured 1 hr after last administration by hanging wire test; format: functional, organism-based
[20] = test system: Mus musculus; assay: Improvement of motor dysfunction in pathogenic alpha-synuclein induced male C57BL/6J mouse assessed as reduction in number of falls at 10 mg/kg, po administered once a day for 4 weeks and measured 1 hr after last administration by hanging wire test; format: functional, organism-based

Row | SMILES | IC50 [1] [nM] | other results
1 | OCCCNc1nnc(-c2ccc(C(F)(F)F)cc2Cl)c2ccccc12 | 350 | –
2 | CC(O)CCNc1nnc(-c2ccc(C(F)(F)F)cc2)c2ccccc12 (stereo not given) | 1200 | –
3 | Cc1ccc(-c2nnc(NCCCO)c3ccccc23)cc1 | 2000 | IC50 [2]: 3100 nM; IC50 [3]: > 10000 nM; concentration at 1 h [4]: 360 ng/mL; concentration at 1 h [5]: 117 ng/g; Kp at 1 h [6]: 0.33
4 | CC(CO)CNc1nnc(-c2ccc(C(F)(F)F)cc2)c2ccccc12 (stereo not given) | 230 | –
5 | Cc1cc(-c2ccc(C(F)(F)F)cc2C(F)(F)F)nnc1NC[C@@H](C)O | 90 | –
6 | OCCCNc1nnc(-c2ccc(C(F)(F)F)cc2)c2ccccc12 | 370 | –
7 | CC(C)(O)c1coc(S(=O)(=O)NC(=O)Nc2c3c(cc4c2CCC4)CCC3)c1 | – | concentration at 1 h [7]: 2320 ng/mL; concentration at 1 h [8]: 23.1 ng/g; Kp at 1 h [9]: 0.01; IC50 [10]: 7.5 nM; inhibition [11]: inactive
8 | Cc1cc(NC[C@@H](C)O)nnc1-c1ccc(C(F)(F)F)cc1O | 17 | –
9 | Cc1cc(NC[C@@H](C)O)nnc1-c1ccc(C(F)(F)F)cc1C(F)(F)F | 200 | –
10 | Cc1cc(-c2ccc(C(F)(F)F)cc2O)nnc1NC[C@@H](C)O | 160 | –
11 | Cc1c(N[C@@H]2CCC[C@H]2O)nnc(-c2ccc(C(F)(F)F)cc2O)c1C | 28 | –
12 | COCCCNc1nnc(-c2ccc(C(F)(F)F)cc2)c2ccccc12 | 1700 | –
13 | Cc1c(N[C@@H]2CCCC[C@H]2O)nnc(-c2ccc(C(F)(F)F)cc2O)c1C | – | IC50 [2]: 5.7 nM; IC50 [3]: > 10000 nM; microsomal CLint at 0.2 µM [12]: < 20 µL/min/mg; microsomal CLint at 0.2 µM [13]: < 20 µL/min/mg; Kp at 1 h [14]: 0.94; inhibition [15]: Active; inhibition [16]: Active; inhibition [17]: Active; IC50 [18]: 6.3 nM; Activity [19]: Active; Activity [20]: Active
14 | C[C@@H](O)CNc1ccc(-c2ccc(C(F)(F)F)cc2C(F)(F)F)nn1 | 150 | –
15 | C[C@H](O)CNc1nnc(-c2ccc(C(F)(F)F)cc2)c2ccccc12 | 230 | –
16 | OCCCNc1nnc(-c2ccccc2C(F)(F)F)c2ccccc12 | 5200 | –

Row | SMILES | IC50 [1] [nM] | other results
17 | OCCCNc1nnc(-c2ccc(C(F)(F)F)cc2C(F)(F)F)c2ccccc12 | 110 | –
18 | C[C@@H](O)CNc1nnc(-c2ccc(C(F)(F)F)cc2)c2ccccc12 | 140 | –
19 | OCCCNc1nnc(-c2ccc(C(F)(F)F)c(F)c2)c2ccccc12 | 980 | –
20 | Cc1c(NC[C@@H](C)O)nnc(-c2ccc(C(F)(F)F)cc2O)c1C | 14 | –
21 | CC(CCO)Nc1nnc(-c2ccc(C(F)(F)F)cc2)c2ccccc12 (stereo not given) | 3500 | –
22 | OCCCNc1nnc(-c2cccc(C(F)(F)F)c2)c2ccccc12 | 17000 | –
23 | OCCNc1nnc(-c2ccc(C(F)(F)F)cc2)c2ccccc12 | 610 | –
24 | CC(C)(CO)CNc1nnc(-c2ccc(C(F)(F)F)cc2)c2ccccc12 | 1000 | –
25 | Cc1c(N[C@H]2CCC[C@@H]2O)nnc(-c2ccc(C(F)(F)F)cc2O)c1C | 650 | –
26 | Cc1cc(C(F)(F)F)ccc1-c1nnc(NCCCO)c2ccccc12 | 490 | –
27 | Cc1c(NC[C@@H](C)O)nnc(-c2ccc(C(F)(F)F)cc2C(F)(F)F)c1C | 210 | –
28 | Cc1c(NC[C@@H](C)O)nnc(-c2ccc(C(F)(F)F)cc2C(F)F)c1C | 590 | –
29 | Cc1c(N[C@H]2CCC[C@H]2O)nnc(-c2ccc(C(F)(F)F)cc2O)c1C | 27 | –
30 | OCCCNc1nnc(-c2ccc(C(F)(F)F)cc2F)c2ccccc12 | 510 | –
31 | C[C@@H](O)CNc1nnc(-c2ccc(C(F)(F)F)cc2C(F)(F)F)c2ccccc12 | 57 | –

From ChEMBL document CHEMBL6078728 (Bioorg Med Chem, 2025)
